Data on 78 compounds can be found in the METLIN SMRT retention time set (Domingo-Almenara et al. 2019).

Each structure is given as a SMILES string.

A short description of the data set: gradient 5% acetonitrile 3 min, to 50% in 2 min, to 85% in 15 min, held 3 min, 100 µL/min. As to conditions: column: Zorbax Extend-C18 2.1 x 50 mm; eluents: water / acetonitrile, 0.1% formic acid. Put shortly: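 The system's dead and dwell volumes were 40 μL and 900 μL, with a Zorbax Extend-C18 column (2.1 × 50 mm, 1.8 μm) run at 100 μL/min in water and acetonitrile containing 0.1% formic acid each. Pure standards were analyzed in mixtures of ~100 molecules by HPLC–quadrupole time-of-flight mass spectrometry in positive and negative ionization mode. Retention time was assigned from computationally picked, manually inspected adduct peaks.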
With `CC(C)CC(=O)N1CCc2c(c(C(=O)NCc3ccc4c(c3)OCO4)nn2C)C1`, the RP-LC retention time came out at 745 s.

The compound `COc1ccc(NC(=O)Cn2ccc3c(=O)n(C)c(=O)n(C)c32)c(OC)c1` registered an RP-LC retention time of 665 s.

The compound `O=c1ccc(N2CCCN(S(=O)(=O)c3ccc(F)cc3F)CC2)nn1-c1ccc(Cl)cc1` showed an RP-LC retention time of 966 s.

The compound `CCOC(=O)c1c(NCc2ccccc2Cl)c2cccc(Cl)c2[nH]c1=O` gave an RP-LC retention time of 867 s.

Compound `Cc1ccc2c(Nc3cccc(Br)c3)c(C(=O)N3CCOCC3)cnc2n1` displayed an RP-LC retention time of 611 s.

As to `Cc1ccc(NC(=O)c2cc3c(=O)n(C)c4ccccc4n3n2)cc1F`, the RP-LC retention time was 975 s.

Take `Cc1ccc(CN(C(=O)COc2ccc(Cl)c(C)c2)C2CCS(=O)(=O)C2)o1` (stereo not drawn): the RP-LC retention time came to 979 s.

As to `COc1ccc(-n2c(=O)c3sccc3n(Cc3nc(-c4ccc(Cl)c(F)c4)no3)c2=O)cc1`, the RP-LC retention time is 1060 s.

On to `COc1cc(C2OC(c3ccc(F)cc3)=NN2C(C)=O)cc(OC)c1OC` (stereo not drawn), for which the RP-LC retention time was found to be 902 s.

Compound `Cc1ccc(Cn2c(=O)c(N3CCN(C(=O)NCC4CCCO4)CC3)nc3cccnc32)cc1` (stereo not drawn) registered an RP-LC retention time of 935 s.

For the compound `Cn1c(=O)c2ccn(CC(=O)N3CCC(Cc4ccccc4)CC3)c2n(C)c1=O`, the RP-LC retention time was found to be 782 s.

`CC(C)CCNC(=O)C1CCN(Cc2cc3ccccc3n2Cc2ccccc2Cl)CC1` had an RP-LC retention time of 829 s.

`CCCc1ccc(S(=O)(=O)N2CCCC2c2nc(-c3cccc(C)c3)no2)cc1` (stereo not drawn): the RP-LC retention time was 1330 s.

Consider `O=C(COc1cccc(Cl)c1)N1CCN(c2nc(CN3CCCCC3)cs2)CC1`, for which the RP-LC retention time turned out to be 681 s.

`Cc1cc2nn(CC(=O)Nc3ccc(F)cc3)c(=O)n2c(-c2ccccc2)n1`: the RP-LC retention time turned out to be 785 s.

For the compound `COc1ccc(C)cc1NC(=O)Cn1nc2cc(-c3ccccn3)nc(C)n2c1=O`, the RP-LC retention time was found to be 804 s.

With `O=C(Cn1cccc1-c1nc(-c2ccccc2)cs1)NCc1ccco1`, the RP-LC retention time worked out at 1030 s.

In the case of `CCNC(=O)N1CCc2c([nH]c3ccc(OC)cc23)C12C(=O)N(C)c1ccccc12` (stereo not drawn), the RP-LC retention time is 984 s.

For the compound `CN1CCN(C(=O)Cn2cccc2-c2nc(-c3ccc(Cl)cc3)cs2)CC1`, the RP-LC retention time worked out at 715 s.

`O=C(Nc1ccccc1C(F)(F)F)c1ccc(N2CCCC2)nn1` gave an RP-LC retention time of 868 s.

In turn, `CCC(CC)C(=O)N1CCC2(CC1)CN(C)CC2c1nc(-c2ccncc2)n[nH]1` (stereo not drawn) showed an RP-LC retention time of 565 s.

Consider `O=S(=O)(C1CC1)N1CCC(c2nc(-c3ccncc3)no2)C1` (stereo not drawn), for which the RP-LC retention time worked out at 670 s.

The compound `Cc1nc(-c2csc(S(=O)(=O)N3CCC(C(=O)Nc4ccc(Cl)cc4F)CC3)c2)no1` came in with an RP-LC retention time of 990 s.

For `CCNC(=O)c1ccc2c(c1)CCCN2S(=O)(=O)CC`, the RP-LC retention time came to 709 s.

The compound `C=CCNC(=O)C1CCCN(c2ncnc3c2oc2ccccc23)C1` (stereo not drawn) displayed an RP-LC retention time of 674 s.

In the case of `Clc1nnc(NC2CCCCC2)c(Cl)c1Cl`, the RP-LC retention time was determined as 1200 s.

In turn, `COc1ccc(Cn2c(=O)c3sccc3n(Cc3nc(-c4ccc(C)c(C)c4)no3)c2=O)cc1` returned an RP-LC retention time of 1180 s.

`CC1CCCN(CC2CCN(S(=O)(=O)Cc3c(F)cccc3Cl)CC2)C1` (stereo not drawn) came in with an RP-LC retention time of 685 s.

Consider `COc1ccc(C2=NC3(CCN(C(C)C)CC3)NC(c3cccc(OC)c3O)C2)cc1OC` (stereo not drawn), for which the RP-LC retention time was found to be 575 s.

For `NC(=O)[C@H](Cc1ccccc1)NC(=O)[C@H](Cc1ccccc1)NC(=O)[C@@H]1CCCN1C(=O)[C@@H](N)Cc1ccc(O)cc1`, the RP-LC retention time is 678 s.

`COc1ccc(Nc2c(-c3ccc(SC)cc3)nc3cnccn23)cc1OC` displayed an RP-LC retention time of 818 s.

Regarding `CC(=O)Nc1ccc2c(c1)N(C(=O)c1cccs1)CCC2`, the RP-LC retention time is 695 s.

`CC(C)n1c(=O)c2ccccc2n(Cc2nc(-c3ccc(F)cc3)no2)c1=O` came in with an RP-LC retention time of 1110 s.

In the case of `CC(C)n1cnc2ccc(-c3noc(COc4ccc(Cl)cc4)n3)cc21`, the RP-LC retention time was 853 s.

For `O=C(c1ccc([N+](=O)[O-])o1)N1CCN(C(=O)C2CC2c2cccs2)CC1` (stereo not drawn), the RP-LC retention time was 752 s.

`Cc1ccc(-n2nc(N3CCCC(C(=O)NC(C)CCc4ccccc4)C3)ccc2=O)cc1Cl` (stereo not drawn) displayed an RP-LC retention time of 1060 s.

`O=C(Nc1ccc(F)cc1F)N1CCN(c2cc(-c3ccncc3)[nH]n2)CC1` came in with an RP-LC retention time of 596 s.

Compound `CC(C)Cn1cc(CCNC(=O)c2cc3ccccc3[nH]2)c2cccnc21` came in with an RP-LC retention time of 850 s.

Take `Cc1nocc1C(=O)N1CCCn2ccnc2C1C1CCCC1` (stereo not drawn): the RP-LC retention time was 589 s.

`COc1ccc(S(=O)(=O)N2CCCC(C(=O)NCCc3ccc(OC)c(OC)c3)C2)cc1C` (stereo not drawn) had an RP-LC retention time of 870 s.

Turning to `CCOC(=O)C(C)Sc1ccc(NC(=O)c2ccco2)nn1` (stereo not drawn), the RP-LC retention time is 759 s.

As to `COc1ccc(NC(=O)Cc2c(C)nn(-c3nc(C)cs3)c2C)cc1`, the RP-LC retention time was 873 s.

As for `CCC(C)N(CC(=O)N1CCc2sccc2C1COc1ccccc1OC)C(=O)COC` (stereo not drawn), the RP-LC retention time worked out at 845 s.

Compound `COc1ccccc1CNC(=O)CSc1ccc(-c2cccnc2)nn1` displayed an RP-LC retention time of 592 s.

`COc1ccc(CCNC(=O)C2CCN(c3ncnc4c3oc3ccccc34)CC2)cc1OC` showed an RP-LC retention time of 683 s.

For the compound `Cc1cc(C)n(-c2ccnc(N3CCC(C(=O)NCCc4ccccn4)CC3)n2)n1`, the RP-LC retention time amounted to 575 s.

`Cc1cccc(N2C(=O)CN(CCCc3ccccc3)[C@H]3CS(=O)(=O)C[C@H]32)c1` returned an RP-LC retention time of 871 s.

The compound `CCCc1cc(N2CCN(C(=O)c3ccc4c(c3)OCO4)CC2)nc2nncn12` came in with an RP-LC retention time of 622 s.

`COc1ccc(OC)c(NC(=O)Cn2cccc2-c2nc(-c3ccc4c(c3)OCO4)no2)c1` displayed an RP-LC retention time of 1010 s.

Regarding `Cc1cc(C)n(CCNC(=O)Nc2cccs2)n1`, the RP-LC retention time stood at 603 s.

In the case of `COc1ccc(-c2noc(C3CC(=O)N(c4ccc(C)c(C)c4)C3)n2)cc1` (stereo not drawn), the RP-LC retention time stood at 1050 s.

Compound `COc1ccc(C2C(C(=O)Nc3ccc4c(c3)OCCO4)c3ccccc3C(=O)N2C)cc1` (stereo not drawn) returned an RP-LC retention time of 832 s.

With `CCc1ccc(NC(=O)Cn2nc(C(=O)N3CCCC3)c3ccccc32)cc1`, the RP-LC retention time was 917 s.

Compound `COc1ccc2c(c1)OC1(C)CC2C(S(=O)(=O)c2ccc(C)c(C)c2)C(=O)N1` (stereo not drawn) yielded an RP-LC retention time of 934 s.

As to `COc1cc(NC(=O)CSc2ccc(N3CCCC(C(=O)NC4CC4)C3)nn2)cc(OC)c1` (stereo not drawn), the RP-LC retention time was found to be 642 s.

`COc1cccc(CNC(=O)C2CCCN(S(=O)(=O)c3cc(-c4noc(C)n4)cs3)C2)c1` (stereo not drawn) gave an RP-LC retention time of 874 s.

Consider `CC1CCCN(c2nn(CC(=O)Nc3cc(F)cc(F)c3)c(=O)c3ccccc23)C1` (stereo not drawn), for which the RP-LC retention time is 1180 s.

The compound `Cc1oc2ncnc(N3CCCC(C(=O)NCc4cccnc4)C3)c2c1C` (stereo not drawn) displayed an RP-LC retention time of 593 s.

In turn, `COC(=O)C(NC(=O)Nc1ccc(-c2nc(-c3ccccc3)co2)cc1)c1ccccc1` (stereo not drawn) came in with an RP-LC retention time of 1090 s.

`COc1ccc(C(C)NS(=O)(=O)c2cc(-c3nc(C(C)(C)C)cs3)cs2)cc1` (stereo not drawn) displayed an RP-LC retention time of 1240 s.

Take `Cc1ccccc1-n1c(=O)c2sccc2n(Cc2nc(-c3ccc(F)c(Cl)c3)no2)c1=O`: the RP-LC retention time worked out at 1110 s.

The compound `O=C(NCc1cccc(Br)c1)c1cn2nc(Cl)ccc2n1` came in with an RP-LC retention time of 867 s.

For `O=C([C@@H]1C[C@H](F)CN1C(=O)Nc1cccc(F)c1)N1CCCCC1`, the RP-LC retention time came to 708 s.

In turn, `CC(=O)N1CCc2ccccc2C1C(=O)NCc1cccs1` (stereo not drawn) displayed an RP-LC retention time of 720 s.

Compound `CCc1nn2c(CNS(=O)(=O)Cc3ccccc3Cl)c(-c3ccccc3)nc2s1` yielded an RP-LC retention time of 1010 s.

`Cc1c(F)cccc1NC(=O)N1CCN(C2=CC3=NC(C)CN3C=N2)CC1` (stereo not drawn) yielded an RP-LC retention time of 649 s.

`CCn1c(CN2CCN(S(C)(=O)=O)CC2)nc2cc(NC(=O)C(C)C)ccc21` showed an RP-LC retention time of 612 s.

Regarding `Cc1nc(C)c(C(=O)N2CC[C@H](CO)[C@H](NC(=O)C3CC3)C2)s1`, the RP-LC retention time was found to be 573 s.

Consider `O=C(c1ccn[nH]1)N1CCC[C@H]1c1nc(C2CCOCC2)n[nH]1`, for which the RP-LC retention time turned out to be 558 s.

For the compound `CC1CCCN(c2cc(SCC(=O)Nc3ccc(F)cc3)ncn2)C1` (stereo not drawn), the RP-LC retention time worked out at 955 s.

For the compound `CN(C)C(=O)c1cc(=O)[nH]c2ccc(F)cc12`, the RP-LC retention time was found to be 577 s.

For the compound `COc1ccc(-c2nc(Nc3c(C)n[nH]c3C)sc2C)cc1`, the RP-LC retention time was determined as 630 s.

On to `Cc1ccc(-n2c(N3CCC(C(=O)NC(C)c4ccc(F)cc4)CC3)nc3ccsc3c2=O)cc1` (stereo not drawn), for which the RP-LC retention time turned out to be 1010 s.

For the compound `Cn1cc(-c2cc3n(n2)CCC(=O)N3CCCC(=O)N2CCCCC2)c2ccccc21`, the RP-LC retention time turned out to be 802 s.

`O=C(c1ccnc(-c2cccs2)c1)N1CCN(c2ccccn2)CC1` gave an RP-LC retention time of 605 s.

The compound `CCc1nnc2nc(N3CCN(C(=O)Cc4cccs4)CC3)cc(C)n12` yielded an RP-LC retention time of 613 s.

In turn, `O=C(O)c1ccc2c(c1)n(Cc1ccc(F)cc1)c(=O)c1ccnn12` gave an RP-LC retention time of 793 s.

`Cc1[nH]c(C(=O)N2CCC(CC(=O)NCc3ccco3)CC2)c(C)c1C(=O)OC(C)C`: the RP-LC retention time came to 765 s.
